Species on record: Rattus norvegicus
Test: DrugMatrix - Regimen: Daily Repeat
Assay type: toxicity, organism-based, Sprague-Dawley
Set-up: regimen Daily Repeat, gender Male, age 6-8 weeks
Conditions: in vivo, po, route oral GAVAGE, vehicle .5 % CMC; for ABSOLUTE BASOPHIL / ABSOLUTE EOSINOPHIL / ABSOLUTE LYMPHOCYTE / ABSOLUTE MONOCYTE / ABSOLUTE SEGMENTED NEUTROPHIL / BASOPHIL / EOSINOPHIL / ERYTHROCYTE COUNT / HEMATOCRIT / HEMOGLOBIN / LEUKOCYTE COUNT / LYMPHOCYTE / MEAN CORPUSCULAR HEMOGLOBIN / MEAN CORPUSCULAR HEMOGLOBIN CONCENTRATION / MEAN CORPUSCULAR VOLUME / MONOCYTE / NEUTROPHIL / NUCLEATED RED BLOOD CELLS / PLATELET COUNT: tissue Blood; for ALANINE AMINOTRANSFERASE / ALBUMIN / ALKALINE PHOSPHATASE / ASPARTATE AMINOTRANSFERASE / BLOOD UREA NITROGEN / CARBON DIOXIDE / CHLORIDE / CHOLESTEROL / CREATINE PHOSPHOKINASE / CREATININE / GLUCOSE / LACTATE DEHYDROGENASE / LIPASE / PHOSPHORUS / POTASSIUM / SODIUM / TOTAL BILIRUBIN / TOTAL PROTEIN / URIC ACID: tissue Plasma
[1] = 0 mg/kg, 72 h, dose level Control, time 3 day
[2] = 0 mg/kg, 120 h, dose level Control, time 5 day
[3] = 100 mg/kg, 72 h, dose level Low, time 3 day

## CCc1ccc(C(=O)C(C)CN2CCCCC2)cc1 (centres undefined) [EPERISONE]
[1]
  ABSOLUTE BASOPHIL: 0 CELLS/uL
  ABSOLUTE EOSINOPHIL: 284.5 CELLS/uL
  ABSOLUTE LYMPHOCYTE: 11670.5 CELLS/uL
  ABSOLUTE MONOCYTE: 420.83 CELLS/uL
  ABSOLUTE SEGMENTED NEUTROPHIL: 1024.17 CELLS/uL
  BASOPHIL: 0%
  EOSINOPHIL: 1.67%
  ERYTHROCYTE COUNT: 5.38 x10E6/uL
  HEMATOCRIT: 34.05%
  HEMOGLOBIN: 12.75 G/DL
  LEUKOCYTE COUNT: 13.4 x10E3/uL
  LYMPHOCYTE: 88.33%
  MEAN CORPUSCULAR HEMOGLOBIN: 23.73 pg
  MEAN CORPUSCULAR HEMOGLOBIN CONCENTRATION: 37.43 G/DL
  MEAN CORPUSCULAR VOLUME: 63.4 fL
  MONOCYTE: 2.83%
  NEUTROPHIL: 7.17%
  NUCLEATED RED BLOOD CELLS: 0 /100WBC
  PLATELET COUNT: 1184.67 x10E3/uL
  ALANINE AMINOTRANSFERASE: 45.33 u/L
  ALBUMIN: 4.3 G/DL
  ALKALINE PHOSPHATASE: 388.83 u/L
  ASPARTATE AMINOTRANSFERASE: 84.83 u/L
  BLOOD UREA NITROGEN: 15.5 mg/dL
  CARBON DIOXIDE: 27 mmol/L
  CHLORIDE: 101.8 MEQ/L
  CHOLESTEROL: 76.67 mg/dL
  CREATINE PHOSPHOKINASE: 301 u/L
  CREATININE: 0.21 mg/dL
  GLUCOSE: 168.83 mg/dL
  LACTATE DEHYDROGENASE: 294.83 u/L
  LIPASE: 9.8 u/L
  PHOSPHORUS: 13.25 mg/dL
  POTASSIUM: 6.41 MEQ/L
  SODIUM: 143.72 MEQ/L
  TOTAL BILIRUBIN: 0.22 mg/dL
  TOTAL PROTEIN: 5.98 G/DL
  URIC ACID: 1.5 mg/dL
[2]
  ABSOLUTE BASOPHIL: 0 CELLS/uL
  ABSOLUTE EOSINOPHIL: 190.67 CELLS/uL
  ABSOLUTE LYMPHOCYTE: 12549.5 CELLS/uL
  ABSOLUTE MONOCYTE: 276 CELLS/uL
  ABSOLUTE SEGMENTED NEUTROPHIL: 1067.17 CELLS/uL
  BASOPHIL: 0%
  EOSINOPHIL: 1.33%
  ERYTHROCYTE COUNT: 5.66 x10E6/uL
  HEMATOCRIT: 35.92%
  HEMOGLOBIN: 13.65 G/DL
  LEUKOCYTE COUNT: 14.08 x10E3/uL
  LYMPHOCYTE: 89%
  MEAN CORPUSCULAR HEMOGLOBIN: 24.12 pg
  MEAN CORPUSCULAR HEMOGLOBIN CONCENTRATION: 38.03 G/DL
  MEAN CORPUSCULAR VOLUME: 63.47 fL
  MONOCYTE: 2%
  NEUTROPHIL: 7.67%
  NUCLEATED RED BLOOD CELLS: 0.17 /100WBC
  PLATELET COUNT: 1251.67 x10E3/uL
  ALANINE AMINOTRANSFERASE: 43.33 u/L
  ALBUMIN: 4.22 G/DL
  ALKALINE PHOSPHATASE: 365.67 u/L
  ASPARTATE AMINOTRANSFERASE: 83.67 u/L
  BLOOD UREA NITROGEN: 18.17 mg/dL
  CARBON DIOXIDE: 28.67 mmol/L
  CHLORIDE: 103.5 MEQ/L
  CHOLESTEROL: 71.5 mg/dL
  CREATINE PHOSPHOKINASE: 284.5 u/L
  CREATININE: 0.21 mg/dL
  GLUCOSE: 161.67 mg/dL
  LACTATE DEHYDROGENASE: 259.67 u/L
  LIPASE: 9.5 u/L
  PHOSPHORUS: 12.45 mg/dL
  POTASSIUM: 6.49 MEQ/L
  SODIUM: 144.25 MEQ/L
  TOTAL BILIRUBIN: 0.2 mg/dL
  TOTAL PROTEIN: 6.1 G/DL
  URIC ACID: 1.73 mg/dL
[3]
  ABSOLUTE BASOPHIL: 0 CELLS/uL
  ABSOLUTE EOSINOPHIL: 0 CELLS/uL
  ABSOLUTE LYMPHOCYTE: 7799.67 CELLS/uL
  ABSOLUTE MONOCYTE: 242.67 CELLS/uL
  ABSOLUTE SEGMENTED NEUTROPHIL: 691 CELLS/uL
  BASOPHIL: 0%
  EOSINOPHIL: 0%
  ERYTHROCYTE COUNT: 5.44 x10E6/uL
  HEMATOCRIT: 34.63%
  HEMOGLOBIN: 12.8 G/DL
  LEUKOCYTE COUNT: 8.73 x10E3/uL
  LYMPHOCYTE: 89.33%
  MEAN CORPUSCULAR HEMOGLOBIN: 23.6 pg
  MEAN CORPUSCULAR HEMOGLOBIN CONCENTRATION: 36.97 G/DL
  MEAN CORPUSCULAR VOLUME: 63.73 fL
  MONOCYTE: 2.67%
  NEUTROPHIL: 8%
  NUCLEATED RED BLOOD CELLS: 0 /100WBC
  PLATELET COUNT: 1233.67 x10E3/uL
  ALANINE AMINOTRANSFERASE: 50 u/L
  ALBUMIN: 4.33 G/DL
  ALKALINE PHOSPHATASE: 470.67 u/L
  ASPARTATE AMINOTRANSFERASE: 82 u/L
  BLOOD UREA NITROGEN: 13.67 mg/dL
  CARBON DIOXIDE: 29.33 mmol/L
  CHLORIDE: 101.5 MEQ/L
  CHOLESTEROL: 90.33 mg/dL
  CREATINE PHOSPHOKINASE: 213.33 u/L
  CREATININE: 0.21 mg/dL
  GLUCOSE: 138.33 mg/dL
  LACTATE DEHYDROGENASE: 128.67 u/L
  LIPASE: 9 u/L
  PHOSPHORUS: 11.63 mg/dL
  POTASSIUM: 6.14 MEQ/L
  SODIUM: 146.7 MEQ/L
  TOTAL BILIRUBIN: 0.3 mg/dL
  TOTAL PROTEIN: 6.07 G/DL
  URIC ACID: 0.97 mg/dL
